Among the data in ChEMBL document CHEMBL1909046, “DrugMatrix in vitro pharmacology data” are IC50 and Ki values, retold here.

In data set [1] the target is Protein phosphatase 3 catalytic subunit alpha (Homo sapiens, UniProt Q08209). Details: species or system Escherichia coli.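 Also: inhibition of calcineurin (PP2B) enzyme activity, measured with DiFMUP as the substrate; in other assays of this panel Not Active means under 50% inhibition at 10 µM.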
For data set [2], the target named is Beta-1 adrenergic receptor (Homo sapiens, UniProt P08588). Kind of data set: DRUGMATRIX: Adrenergic beta1 radioligand binding (ligand: [125I] Cyanopindolol). Particulars: cho-k1; Not Active = under 50% inhibition at 10 µM. Format: cell membranes, CHO-K1, Membrane.
Data set [3] has as its target T1, 3-hydroxy-3-methylglutaryl-coenzyme A reductase (Homo sapiens, UniProt P04035).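 Also: enzyme inhibition assay of HMG-CoA reductase using radiolabeled [14C]HMG-CoA as substrate; in other assays of this panel Not Active means under 50% inhibition at 10 µM.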
T1 sequence (P04035 whole entry): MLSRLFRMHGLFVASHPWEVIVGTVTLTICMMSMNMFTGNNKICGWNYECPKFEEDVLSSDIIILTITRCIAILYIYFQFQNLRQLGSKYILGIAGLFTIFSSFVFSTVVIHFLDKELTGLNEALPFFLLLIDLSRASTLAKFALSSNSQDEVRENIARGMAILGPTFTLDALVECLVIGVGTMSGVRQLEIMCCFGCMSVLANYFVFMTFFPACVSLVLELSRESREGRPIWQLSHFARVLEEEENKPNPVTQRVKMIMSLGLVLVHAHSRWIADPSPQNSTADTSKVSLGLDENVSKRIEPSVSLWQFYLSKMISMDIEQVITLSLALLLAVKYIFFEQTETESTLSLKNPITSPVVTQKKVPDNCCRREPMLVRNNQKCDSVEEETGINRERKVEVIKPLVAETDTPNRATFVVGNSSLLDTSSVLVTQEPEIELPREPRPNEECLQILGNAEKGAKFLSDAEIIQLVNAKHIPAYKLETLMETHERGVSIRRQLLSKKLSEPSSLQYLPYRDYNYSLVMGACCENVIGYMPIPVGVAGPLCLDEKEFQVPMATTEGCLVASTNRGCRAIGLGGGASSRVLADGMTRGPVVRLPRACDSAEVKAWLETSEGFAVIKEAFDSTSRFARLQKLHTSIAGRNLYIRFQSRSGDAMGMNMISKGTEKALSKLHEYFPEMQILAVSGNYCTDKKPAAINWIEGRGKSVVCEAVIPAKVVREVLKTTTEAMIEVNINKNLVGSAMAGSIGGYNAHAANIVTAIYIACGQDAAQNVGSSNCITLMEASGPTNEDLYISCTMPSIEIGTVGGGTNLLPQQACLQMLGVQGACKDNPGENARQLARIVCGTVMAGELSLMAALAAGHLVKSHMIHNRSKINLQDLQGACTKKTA
Also on record: species or system Escherichia coli.

Data set [4] concerns the target Voltage-gated inwardly rectifying potassium channel KCNH2 (Homo sapiens, UniProt Q12809). Particulars: hek293. Also: in other assays of this panel Not Active means under 50% inhibition at 10 µM.
Data set [5] in a line: DRUGMATRIX: Interleukin IL-1 radioligand binding (ligand: [125I] interleukin 1beta). Format: cell membranes, Membrane. Particulars: nih3t3; Not Active = under 50% inhibition at 10 µM.
For the next data set, the target named is Cannabinoid receptor 1 (Homo sapiens, UniProt P21554). Type of data set: cell membranes, Membrane. Particulars: chem-1. Also: in other assays of this panel Not Active means under 50% inhibition at 10 µM.
Another data set concerns the target T2, Androgen receptor (Rattus norvegicus, UniProt P15207). Also: in other assays of this panel Not Active means under 50% inhibition at 10 µM.
T2 sequence (P15207 whole entry): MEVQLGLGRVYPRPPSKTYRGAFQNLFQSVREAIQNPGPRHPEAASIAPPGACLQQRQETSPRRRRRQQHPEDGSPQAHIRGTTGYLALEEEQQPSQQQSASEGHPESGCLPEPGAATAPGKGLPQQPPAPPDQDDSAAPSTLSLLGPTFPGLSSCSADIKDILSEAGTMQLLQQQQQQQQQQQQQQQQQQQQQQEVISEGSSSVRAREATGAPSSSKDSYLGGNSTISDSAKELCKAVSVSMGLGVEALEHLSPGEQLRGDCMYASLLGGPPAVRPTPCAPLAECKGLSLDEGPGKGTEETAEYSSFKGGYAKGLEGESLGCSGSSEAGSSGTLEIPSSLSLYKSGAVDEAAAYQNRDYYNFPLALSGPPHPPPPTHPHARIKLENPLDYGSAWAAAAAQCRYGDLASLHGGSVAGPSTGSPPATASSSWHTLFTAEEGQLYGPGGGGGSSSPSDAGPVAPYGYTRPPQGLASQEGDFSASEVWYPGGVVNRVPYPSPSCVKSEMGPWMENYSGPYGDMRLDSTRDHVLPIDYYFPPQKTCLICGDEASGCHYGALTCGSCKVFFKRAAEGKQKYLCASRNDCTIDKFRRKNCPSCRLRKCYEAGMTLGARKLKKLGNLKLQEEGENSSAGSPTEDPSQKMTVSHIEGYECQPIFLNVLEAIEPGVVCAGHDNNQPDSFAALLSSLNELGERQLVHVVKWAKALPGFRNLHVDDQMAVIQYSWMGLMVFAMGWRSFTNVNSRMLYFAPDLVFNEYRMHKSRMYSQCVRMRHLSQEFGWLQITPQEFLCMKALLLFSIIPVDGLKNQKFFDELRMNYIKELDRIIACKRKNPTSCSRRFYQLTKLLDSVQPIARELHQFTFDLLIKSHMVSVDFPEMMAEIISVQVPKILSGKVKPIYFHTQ

The next data set concerns the target Cytochrome P450 2C19 (Homo sapiens, UniProt P33261). Also: in other assays of this panel Not Active means under 50% inhibition at 10 µM.
A further data set deals with Cytochrome P450 2C9 (Homo sapiens, UniProt P11712).
Chain of Cytochrome P450 2C9 (P11712 whole entry): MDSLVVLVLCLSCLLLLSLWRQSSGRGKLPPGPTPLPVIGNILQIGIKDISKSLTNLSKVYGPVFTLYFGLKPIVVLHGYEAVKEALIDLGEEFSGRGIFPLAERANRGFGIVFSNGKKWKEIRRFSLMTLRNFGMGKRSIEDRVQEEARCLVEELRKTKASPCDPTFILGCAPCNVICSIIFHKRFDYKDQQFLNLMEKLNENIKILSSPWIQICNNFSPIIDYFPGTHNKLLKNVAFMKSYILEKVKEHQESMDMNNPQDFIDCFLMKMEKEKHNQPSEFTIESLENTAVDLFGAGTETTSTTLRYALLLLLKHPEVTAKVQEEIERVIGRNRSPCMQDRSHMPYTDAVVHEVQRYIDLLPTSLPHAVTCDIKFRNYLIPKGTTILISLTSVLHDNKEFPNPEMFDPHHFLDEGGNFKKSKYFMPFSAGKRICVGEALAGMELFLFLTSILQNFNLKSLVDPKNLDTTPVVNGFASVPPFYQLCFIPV

Chain of Voltage-gated inwardly rectifying potassium channel KCNH2 (Q12809 whole entry): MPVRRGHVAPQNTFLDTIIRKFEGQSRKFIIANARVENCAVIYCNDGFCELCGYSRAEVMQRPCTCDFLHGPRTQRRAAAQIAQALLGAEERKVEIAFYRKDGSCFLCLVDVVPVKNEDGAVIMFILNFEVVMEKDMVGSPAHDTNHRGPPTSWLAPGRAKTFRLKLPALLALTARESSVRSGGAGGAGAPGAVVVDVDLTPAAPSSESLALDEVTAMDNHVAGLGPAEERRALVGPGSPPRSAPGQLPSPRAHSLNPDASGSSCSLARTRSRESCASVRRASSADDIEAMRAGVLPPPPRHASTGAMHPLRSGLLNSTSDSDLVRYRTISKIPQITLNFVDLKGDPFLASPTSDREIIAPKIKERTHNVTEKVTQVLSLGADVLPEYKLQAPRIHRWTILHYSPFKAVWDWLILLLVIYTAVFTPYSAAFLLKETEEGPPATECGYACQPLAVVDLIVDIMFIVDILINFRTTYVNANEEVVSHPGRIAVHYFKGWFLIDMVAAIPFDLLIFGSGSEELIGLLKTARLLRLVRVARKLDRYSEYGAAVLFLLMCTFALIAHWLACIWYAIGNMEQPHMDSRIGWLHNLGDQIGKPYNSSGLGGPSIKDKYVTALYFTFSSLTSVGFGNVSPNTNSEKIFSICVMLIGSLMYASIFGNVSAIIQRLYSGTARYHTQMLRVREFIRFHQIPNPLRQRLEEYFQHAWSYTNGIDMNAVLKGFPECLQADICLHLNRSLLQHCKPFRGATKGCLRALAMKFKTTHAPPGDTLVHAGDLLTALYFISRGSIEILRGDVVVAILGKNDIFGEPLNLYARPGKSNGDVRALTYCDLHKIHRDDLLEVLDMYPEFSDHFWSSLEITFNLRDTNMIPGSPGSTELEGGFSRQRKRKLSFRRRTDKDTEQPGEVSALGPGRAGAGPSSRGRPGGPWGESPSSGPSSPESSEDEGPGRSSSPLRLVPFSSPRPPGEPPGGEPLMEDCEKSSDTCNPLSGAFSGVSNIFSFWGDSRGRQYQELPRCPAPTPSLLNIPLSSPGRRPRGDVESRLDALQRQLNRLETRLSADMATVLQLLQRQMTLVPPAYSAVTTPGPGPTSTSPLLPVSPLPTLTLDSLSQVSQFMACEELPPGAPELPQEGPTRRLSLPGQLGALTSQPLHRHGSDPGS
Chain of Cannabinoid receptor 1 (P21554 whole entry): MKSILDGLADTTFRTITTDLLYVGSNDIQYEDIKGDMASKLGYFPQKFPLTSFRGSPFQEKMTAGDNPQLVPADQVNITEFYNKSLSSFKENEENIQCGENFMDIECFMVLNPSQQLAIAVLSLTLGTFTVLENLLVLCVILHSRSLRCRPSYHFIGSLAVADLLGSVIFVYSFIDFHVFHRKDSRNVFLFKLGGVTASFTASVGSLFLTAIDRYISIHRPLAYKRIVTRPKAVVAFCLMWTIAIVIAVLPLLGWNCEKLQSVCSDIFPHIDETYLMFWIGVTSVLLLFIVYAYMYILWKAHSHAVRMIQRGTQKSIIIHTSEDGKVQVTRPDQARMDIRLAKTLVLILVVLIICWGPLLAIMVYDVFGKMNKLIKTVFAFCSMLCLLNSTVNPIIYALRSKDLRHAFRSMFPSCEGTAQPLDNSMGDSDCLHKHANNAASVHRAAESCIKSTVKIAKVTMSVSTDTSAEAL
Chain of Beta-1 adrenergic receptor (P08588 whole entry): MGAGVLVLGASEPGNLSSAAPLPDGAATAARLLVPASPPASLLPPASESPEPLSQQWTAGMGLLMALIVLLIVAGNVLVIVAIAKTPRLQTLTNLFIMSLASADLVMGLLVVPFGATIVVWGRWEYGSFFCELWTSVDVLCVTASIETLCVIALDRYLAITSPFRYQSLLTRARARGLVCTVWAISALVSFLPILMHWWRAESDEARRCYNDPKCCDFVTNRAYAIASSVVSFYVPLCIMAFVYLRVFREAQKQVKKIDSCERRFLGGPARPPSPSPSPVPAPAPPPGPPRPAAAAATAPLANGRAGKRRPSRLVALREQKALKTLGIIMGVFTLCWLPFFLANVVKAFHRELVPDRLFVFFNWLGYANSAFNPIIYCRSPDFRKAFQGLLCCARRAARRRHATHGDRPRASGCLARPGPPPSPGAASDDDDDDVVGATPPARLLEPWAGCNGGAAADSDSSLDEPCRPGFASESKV
Chain of Cytochrome P450 2C19 (P33261 whole entry): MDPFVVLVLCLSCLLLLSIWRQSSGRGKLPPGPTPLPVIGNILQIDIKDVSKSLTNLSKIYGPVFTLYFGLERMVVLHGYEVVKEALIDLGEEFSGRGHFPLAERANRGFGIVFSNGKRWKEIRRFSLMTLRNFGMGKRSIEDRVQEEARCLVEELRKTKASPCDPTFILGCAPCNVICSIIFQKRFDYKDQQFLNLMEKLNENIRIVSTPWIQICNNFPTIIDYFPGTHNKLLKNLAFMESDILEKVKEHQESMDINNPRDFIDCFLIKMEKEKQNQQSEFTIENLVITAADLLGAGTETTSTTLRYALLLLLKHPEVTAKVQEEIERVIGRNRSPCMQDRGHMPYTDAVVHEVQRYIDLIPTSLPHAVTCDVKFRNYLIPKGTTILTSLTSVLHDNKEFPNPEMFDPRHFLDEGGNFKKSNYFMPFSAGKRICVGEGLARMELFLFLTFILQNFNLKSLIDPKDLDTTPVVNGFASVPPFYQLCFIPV

On to `COc1ccc(/C=C/C(=O)Nc2ccccc2C(=O)O)cc1OC`, for which the IC50 result (in [1]; in [2]; in data set [3]; in [4]; in data set [5]; on Cannabinoid receptor 1) was “Not Active” in each case. The 50% inhibitory concentration (IC50) entry against Androgen receptor is listed as “Not Active”. In addition, the Ki result in data set [4] and in data set [5] was “Not Active” in each case.
Regarding `CC1=C(CC(=O)O)c2cc(F)ccc2/C1=C\c1ccc(S(C)(=O)=O)cc1` [EXISULIND], the IC50 entry (in data set [1]; in data set [2]; in data set [3]; in [4]; in data set [5]; on Cannabinoid receptor 1) was “Not Active” in each case. The IC50 entry against Androgen receptor is recorded as “Not Active”. Also, the Ki result in data set [4] and in data set [5] was “Not Active” throughout.
With `CC(C)OC(=O)C(C)(C)Oc1ccc(C(=O)c2ccc(Cl)cc2)cc1` [FENOFIBRATE], the half-maximal inhibitory concentration (IC50) entry (in [1]; in data set [2]; in [3]; in [4]; on Cannabinoid receptor 1; against Androgen receptor) was “Not Active” each time. The Ki result in [4] is given as “Not Active”.
Consider `Nc1nc2c(c(=O)[nH]1)N(C=O)C(CNc1ccc(C(=O)N[C@@H](CCC(=O)O)C(=O)O)cc1)CN2` (stereo partly specified) [LEUCOVORIN], for which the IC50 entry (in data set [1]; in data set [2]; in [3]; in data set [4]; in data set [5]; at Cannabinoid receptor 1) was “Not Active” in each case. In addition, the IC50 result on Androgen receptor is “Not Active”. For the same compound, the Ki entry in data set [4] and in data set [5] was “Not Active” throughout.
On to `C=C(C)[C@H]1Cc2c(ccc3c2O[C@@H]2COc4cc(OC)c(OC)cc4[C@@H]2C3=O)O1` [ROTENONE], for which the IC50 entry is “Not Active” in data set [1]; “Not Active” in [2]; “Not Active” in data set [3]; 3650 nM on Cytochrome P450 2C19; “Not Active” in data set [4]; “Not Active” in [5]. In addition, the IC50 entry on Cannabinoid receptor 1 and at Androgen receptor was “Not Active” throughout. Besides, the Ki result in [4] and in data set [5] was “Not Active” each time.
In the case of `CN[C@@H]1[C@H](O)[C@H](NC)[C@H]2O[C@@]3(O)C(=O)C[C@@H](C)O[C@H]3O[C@@H]2[C@H]1O` [SPECTINOMYCIN], the IC50 result (in data set [1]; in [2]; in data set [3]; in data set [4]; in data set [5]; at Cannabinoid receptor 1) was “Not Active” throughout. The concentration for half-maximal inhibition (IC50) entry against Androgen receptor is recorded as “Not Active”. Besides, the Ki result in data set [4] and in data set [5] was “Not Active” in each case.
In the case of `C[C@@H]1C[C@H]2[C@@H]3CCC4=CC(=O)C=C[C@]4(C)C3=CC[C@]2(C)[C@H]1C(=O)CN1CCN(c2cc(N3CCCC3)nc(N3CCCC3)n2)CC1` [TIRILAZAD], the IC50 result (in data set [1]; in data set [2]; in [3]; in [4]; in data set [5]; against Cannabinoid receptor 1) was “Not Active” each time. Further, the IC50 result against Androgen receptor is “Not Active”. The Ki result in [4] and in [5] was “Not Active” throughout.
On to `O=C(O)C(Cl)(Cl)Cl` [TRICHLOROACETIC ACID], for which the IC50 result (in [1]; in data set [2]; in [3]; in data set [4]; in data set [5]; on Cannabinoid receptor 1) was “Not Active” throughout. The Ki entry in data set [4] and in data set [5] was “Not Active” throughout.
As to `COc1ccc(CN2CCNCC2)c(OC)c1OC` [TRIMETAZIDINE], the IC50 result (in data set [1]; in [2]; in [3]; in data set [4]; in [5]; against Cannabinoid receptor 1) was “Not Active” throughout. In addition, the Ki result in data set [4] and in data set [5] was “Not Active” in each case.
As to `CC(=O)O[C@H]1C[C@@H]2CC[C@@H]3[C@H](CC[C@@]4(C)[C@H]3C[C@H]([N+]3(C)CCCCC3)[C@@H]4OC(C)=O)[C@@]2(C)C[C@@H]1N1CCCCC1.[Br-]` [VECURONIUM BROMIDE], the IC50 result (in data set [1]; in data set [2]; in data set [3]; in data set [4]; in [5]; on Cannabinoid receptor 1) was “Not Active” throughout. Further, the Ki result in data set [4] and in data set [5] was “Not Active” throughout.
Consider `COc1cc(C(=O)NS(=O)(=O)c2ccccc2C)ccc1Cc1cn(C)c2ccc(NC(=O)OC3CCCC3)cc12` [ZAFIRLUKAST], for which the IC50 result in data set [1] is “Not Active”; in data set [2], “Not Active”; in data set [3], “Not Active”; on Cytochrome P450 2C9, 2260 nM; in data set [4], “Not Active”; in [5] it was “Not Active”. For the same compound, the IC50 entry at Cannabinoid receptor 1 is on record as “Not Active”. The Ki entry in data set [4] and in data set [5] was “Not Active” throughout.
As for `Cc1cn([C@H]2C[C@H](N=[N+]=[N-])[C@@H](CO)O2)c(=O)[nH]c1=O` [ZIDOVUDINE], the IC50 result (in data set [1]; in [2]; in [3]; in data set [4]; in data set [5]; against Cannabinoid receptor 1) was “Not Active” throughout. Moreover, the Ki entry in [4] and in data set [5] was “Not Active” in each case.
As to STANNOUS FLUORIDE, the IC50 result (in data set [1]; in data set [2]; in data set [3]; in [4]; in data set [5]; at Cannabinoid receptor 1) was “Not Active” throughout. Moreover, on Androgen receptor, the IC50 result is recorded as “Not Active”. The Ki result (in [1]; in [2]; in [3]; in data set [4]; in data set [5]; at Cannabinoid receptor 1) was “Not Active” in each case. Further, the Ki entry at Androgen receptor is listed as “Not Active”.
For the compound THIMEROSAL, the IC50 result (in data set [1]; in [2]; in [3]; in data set [4]; in data set [5]; at Cannabinoid receptor 1) was “Not Active” each time. Further, the IC50 entry against Androgen receptor is recorded as “Not Active”. The Ki result (in data set [1]; in data set [2]; in data set [3]; in data set [4]; in data set [5]; at Cannabinoid receptor 1) was “Not Active” throughout. Also, the Ki entry on Androgen receptor is given as “Not Active”.

By IC50 is commonly meant the concentration that gives 50% inhibition. Higher therefore signals weaker potency in that assay.
